Results taken from PMC3046181, “Elimination of Endogenous Toxin, Creatinine from Blood Plasma Depends on Albumin Conformation: Site Specific Uremic Toxicity & Impaired Drug Binding” (PLoS ONE, 2011).

Biological target: T1, Human serum albumin (HSA) (Homo sapiens, UniProt P02768)
T1 construct: gene ALB; commercial native serum albumin (Sigma), essentially fatty acid free and globulin free; monomer
Assay: isothermal titration calorimetry, single set of identical sites
Type: binding
Settings: read-out: Ka[M^-1] / ITC ^a (converted)
Source text: isothermal titration calorimetry, single set of identical sites on Human serum albumin (HSA)

T1 sequence (P02768 25-609): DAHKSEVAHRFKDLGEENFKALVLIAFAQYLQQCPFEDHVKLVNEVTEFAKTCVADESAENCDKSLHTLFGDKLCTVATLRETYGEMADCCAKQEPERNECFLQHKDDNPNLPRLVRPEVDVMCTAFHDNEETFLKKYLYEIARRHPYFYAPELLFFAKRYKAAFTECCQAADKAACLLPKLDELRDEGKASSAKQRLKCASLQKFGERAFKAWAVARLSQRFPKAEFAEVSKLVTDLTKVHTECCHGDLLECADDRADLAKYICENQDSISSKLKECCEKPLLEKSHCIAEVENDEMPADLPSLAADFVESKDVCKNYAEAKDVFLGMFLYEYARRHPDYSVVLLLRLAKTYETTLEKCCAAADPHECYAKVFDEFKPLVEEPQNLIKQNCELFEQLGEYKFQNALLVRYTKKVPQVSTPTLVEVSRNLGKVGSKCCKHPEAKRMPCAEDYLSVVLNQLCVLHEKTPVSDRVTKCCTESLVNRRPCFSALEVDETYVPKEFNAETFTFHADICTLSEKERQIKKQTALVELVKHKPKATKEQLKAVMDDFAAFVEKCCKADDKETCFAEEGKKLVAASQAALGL

`CN1CC(=O)NC1=N` [creatinine, 2-Amino-1-methyl-5H-imidazol-4-one] gave a Kd of 11.2 µM.
